Measured values: patent US10889555B2, “Sulfonamide compound or salt thereof” (Taiho Pharmaceutical Co., Ltd., priority 2016, dated 2021)
pIC50: −log10 of the molar value. Read-outs that look alike come from different tables or passages of the source.

System: HCC 1806 cells
Assay: Cell proliferation inhibitory effect on human breast cancer cell line (crystal violet, 72 hours)
Assay type: cell-based
Settings: read-out: Cell growth suppression IC50
Description: Human derived breast cancer cell line HCC 1806 cells were daily passaged at a cell density not exceeding 80% in ATCC recommended Roswell Park Memorial Institute medium (RPMI-1640) containing 10% fetal bovine serum (FBS). In order to start the test of cell proliferation inhibitory activity, HCC 1806 cells were suspended in the above medium, after seeing at 180 μL in each well of a 96-well flat bottom plate so that the number of cells per well was 2,000, the cells were cultured at 37° C. for 1 day in an incubator containing 5% carbon dioxide gas. On the next day, the test compound was dissolved in DMSO, and 20 μL of a drug additive solution diluted serially with distilled water to 10 times of the final concentration was added to each well of the culture plate of the cells, and the cells were cultured at 37° C. for 72 hours in an incubator containing 5% carbon dioxide gas. After culturing for 72 hours, 20 μL of glutaraldehyde was added to each well and allowed to stand for 30 minutes, then the plate was washed 10 times with water and was dried. 100 μL of a stain solution (0.05% crystal violet in a 20% methanol solution) was added to each well and allowed to stand for 30 minutes, then the plate was washed 10 times with water and was dried. 100 μL of an extract solution (0.1 N NaH2PO4: 100% ethanol=1:1) was added to each well and mixed, and the mixture was measured at a wavelength of 540 nm using a plate reader (MTP-450 manufactured by Corona Electric Co., Ltd.). The growth inhibition rate was calculated from the following formula, and the concentration (IC50 (μM)) of a test compound inhibiting 50% was determined. Growth inhibition rate (%)={(C−B)−(T−B)}/(C−B)×100
T: Absorbance of well to which test compound was added
C: Absorbance of wells to which no test compound was added
B: Absorbance of wells to which no cell suspension was added

Compound	pIC50 (Homo sapiens, HCC1806, 72 h)	pIC50
Cc1ccc(F)c([C@@H](C)[C@H](NS(=O)(=O)c2cccc3c2OCCC3(O)C(F)(F)F)c2n[nH]c(=O)o2)c1C (stereo partly drawn) [Example 211A, N-((1S,2R)-2-(6-fluoro-2,3-dimethylphenyl)-1-(5-oxo-4,5-dihydro-1,3,4-oxadiazol-2-yl)propyl)-4-hydroxy-4-(tifluoromethyl)chroman-8-sulfonamide]	6.07	–
Cc1ccc(F)c([C@@H](C)[C@H](NS(=O)(=O)c2ccc(Cl)c(C(=O)N3C4CCC3COC4)n2)c2n[nH]c(=O)o2)c1C [Example 116, 6-(3-oxa-8-azabicyclo[3.2.1]octane-8-carbonyl)-5-chloro-N-((1S,2R)-2-(6-fluoro-2,3-dimethylphenyl)-1-(5-oxo-4,5-dihydro-1,3,4-oxadiazol-2-yl)propyl)pyridine-2-sulfonamide]	6.49	–
CCc1ccc(F)c([C@@H](C)[C@H](NS(=O)(=O)c2ccc(Br)cc2C(N)=O)c2n[nH]c(=O)o2)c1C [Example 96, 5-bromo-2-(N-((1S,2R)-2-(3-ethyl-6-fluoro-2-methylphenyl)-1-(5-oxo-4,5-dihydro-1,3,4-oxadiazol-2-yl)propyl)sulfamoyl)benzamide]	6.02	–
Cc1ccc(F)c([C@@H](C)[C@H](NS(=O)(=O)c2ccc(Cl)c3cccnc23)c2n[nH]c(=O)o2)c1C [Example 153, 5-chloro-N-((1S,2R)-2-(6-fluoro-2,3-dimethylphenyl)-1-(5-oxo-4,5-dihydro-1,3,4-oxadiazol-2-yl)propyl)quinoline-8-sulfonamide]	6.04	–
Cc1ccc(F)c([C@@H](C)[C@H](NS(=O)(=O)c2cc3c(cc2C(N)=O)OCCO3)c2n[nH]c(=O)o2)c1C [Example 261, 7-(N-((1S,2R)-2-(6-fluoro-2,3-dimethylphenyl)-1-(5-oxo-4,5-dihydro-1,3,4-oxadiazol-2-yl)propyl)sulfamoyl)-2,3-dihydrobenzo[b][1,4]dioxin-6-carboxamide]	6.14	–
Cc1c(Br)ccc(F)c1[C@@H](C)[C@H](NS(=O)(=O)c1ncc(Cl)cc1C(N)=O)c1n[nH]c(=O)o1 [Example 264, 2-(N-((1S,2R)-2-(3-bromo-6-fluoro-2-methylphenyl)-1-(5-oxo-4,5-dihydro-1,3,4-oxadiazol-2-yl)propyl)sulfamoyl)-5-chloronicotinamide]	6.12	–
Cc1ccc(F)c([C@@H](C)[C@H](NS(=O)(=O)c2ccc(Cl)c3c2OCCC3O)c2n[nH]c(=O)o2)c1C (single isomer, unassigned) [Example 235B]	–	6.40
COc1cc(Cl)ccc1S(=O)(=O)N[C@H](c1n[nH]c(=O)o1)[C@H](C)c1c(F)ccc(-c2ccc(N3CCOCC3)nc2)c1C [Example 315, 4-chloro-N-((1S,2R)-2-(6-fluoro-2-methyl-3-(6-morpholinopyridin-3-yl)phenyl)-1-(5-oxo-4,5-dihydro-1,3,4-oxadiazol-2-yl)propyl)-2-methoxybenzenesulfonamide]	6.03	–
COc1cc(Cl)ccc1S(=O)(=O)N[C@H](c1n[nH]c(=O)o1)[C@H](C)c1cccc2cccc(C)c12 [Example 71, 4-chloro-2-methoxy-N-((1S,2R)-2-(8-methylnaphthalen-1-yl)-1-(5-oxo-4,5-dihydro-1,3,4-oxadiazol-2-yl)propyl)benzenesulfonamide]	6.10	–
Cc1ccc(F)c([C@@H](C)[C@H](NS(=O)(=O)c2cc(C(=O)N(C)C)ccc2C(N)=O)c2n[nH]c(=O)o2)c1C [Example 37, 3-(N-((1S,2R)-2-(6-fluoro-2,3-dimethylphenyl)-1-(5-oxo-4,5-dihydro-1,3,4-oxadiazol-2-yl)propyl)sulfamoyl)-N1,N1-dimethylterephthalamide]	6.09	–
COc1cc(Cl)ccc1S(=O)(=O)N[C@H](c1n[nH]c(=O)o1)[C@H](C)c1c(F)ccc(-c2c[nH]nc2C)c1C [Example 308, 4-chloro-N-((1S,2R)-2-(6-fluoro-2-methyl-3-(3-methyl-1H-pyrazol-4-yl)phenyl)-1-(5-oxo-4,5-dihydro-1,3,4-oxadiazol-2-yl)propyl)-2-methoxybenzenesulfonamide]	6.06	–
Cc1c(Br)ccc(F)c1[C@@H](C)[C@H](NS(=O)(=O)c1ccc(Cl)cc1C(N)=O)c1n[nH]c(=O)o1 [Example 30, 2-(N-((1S,2R)-2-(3-bromo-6-fluoro-2-methylphenyl)-1-(5-oxo-4,5-dihydro-1,3,4-oxadiazol-2-yl)propyl)sulfamoyl)-5-chlorobenzamide]	6.10	–
CCc1ccc(S(=O)(=O)N[C@H](c2n[nH]c(=O)o2)[C@H](C)c2c(F)ccc(C)c2C)c(C(N)=O)c1 [Example 18, 5-Ethyl-2-(N-((1S,2R)-2-(6-fluoro-2,3-dimethylphenyl)-1-(5-oxo-4,5-dihydro-1,3,4-oxadiazol-2-yl)propyl)sulfamoyl)benzamide]	6.24	–

Now from value to compound, other results behind:

pIC50 (Homo sapiens, HCC1806, 72 h)	Compound	pIC50
6.82	Cc1ccc(F)c([C@@H](C)[C@H](NS(=O)(=O)c2ncc(Cl)cc2C(N)=O)c2n[nH]c(=O)o2)c1C [Example 245, 5-chloro-2-(N-((1S,2R)-2-(6-fluoro-2,3-dimethylphenyl)-1-(5-oxo-4,5-dihydro-1,3,4-oxadiazol-2-yl)propyl)sulfamoyl)nicotinamide]	–
6.36	COc1cc(Cl)ccc1S(=O)(=O)N[C@H](c1n[nH]c(=O)o1)[C@H](C)c1c(F)ccc2ccccc12 [Example 76, 4-chloro-N-((1S,2R)-2-(2-fluoronaphthalen-1-yl)-1-(5-oxo-4,5-dihydro-1,3,4-oxadiazol-2-yl)propyl)-2-methoxybenzenesulfonamide]	–
6.24	CCc1ccc(F)c([C@@H](C)[C@H](NS(=O)(=O)c2ccc(Cl)c(C(C)O)c2OC)c2n[nH]c(=O)o2)c1C (stereo partly drawn) [Example 206A, 4-chloro-N-((1S,2R)-2-(3-ethyl-6-fluoro-2-methylphenyl)-1-(5-oxo-4,5-dihydro-1,3,4-oxadiazol-2-yl)propyl)-3-(1-hydroxyethyl)-2-methoxybenzenesulfonamide]	–
6.55	C[C@H](c1c(F)ccc2ccccc12)[C@H](NS(=O)(=O)c1ccc(Cl)c2c1OCCC2O)c1n[nH]c(=O)o1 (stereo partly drawn) [Example 233, 5-chloro-N-((1S,2R)-2-(2-fluoronaphthalene-1-yl)-1-(5-oxo 4,5-dihydro-1,3,4-oxadiazol-2-yl)propyl)-4-hydroxychroman-8-sulfonamide]	–
6.85	CC(=O)OC1(C)CCOc2c(S(=O)(=O)N[C@H](c3n[nH]c(=O)o3)[C@H](C)c3c(F)ccc(Br)c3C)ccc(Cl)c21 (stereo partly drawn) [Example 167, 8-(N-((1S,2R)-2-(3-bromo-6-fluoro-2-methylphenyl)-1-(5-oxo-4,5-dihydro-1,3,4-oxadiazol-2-yl)propyl)sulfamoyl)-5-chloro-4-methylchroman-4-yl-acetate]	–
7.00	Cc1ccc(F)c([C@@H](C)[C@H](NS(=O)(=O)c2ccc(F)c3c2OCCC3(C)O)c2n[nH]c(=O)o2)c1C (single isomer, unassigned) [Example 224A]	–
6.64	Cc1ccc(F)c([C@@H](C)[C@H](NS(=O)(=O)c2cc(C(=O)N(C)C)c(Cl)cc2C(N)=O)c2n[nH]c(=O)o2)c1C [Example 39, 2-chloro-5-(N-((1S,2R)-2-(6-fluoro-2,3-dimethylphenyl)-1-(5-oxo-4,5-dihydro-1,3,4-oxadiazol-2-yl)propyl)sulfamoyl)-N1,N1-dimethyl terephthalamide]	–
6.54	C[C@H](c1c(F)ccc2ccccc12)[C@H](NS(=O)(=O)c1ccc(Cl)cc1C(N)=O)c1n[nH]c(=O)o1 [Example 6, 5-chloro-2-(N-((1S,2R)-2-(2-fluoronaphthalen-1-yl)-1-(5-oxo-4,5-dihydro-1,3,4-oxadiazol-2-yl)propyl)sulfamoyl)benzamide]	–
6.51	Cc1ccc(F)c([C@@H](C)[C@H](NS(=O)(=O)c2ccc(Cl)c(C(=O)N3CC4CCC(C3)O4)n2)c2n[nH]c(=O)o2)c1C [Example 117, 6-(8-oxa-3-azabicyclo[3.2.1]octane-3-carbonyl)-5-chloro-N-((1S,2R)-2-(6-fluoro-2,3-dimethylphenyl)-1-(5-oxo-4,5 dihydro-1,3,4-oxadiazol-2-yl)propyl)pyridine-2-sulfonamide]	–
6.40	Cc1ccc(F)c([C@@H](C)[C@H](NS(=O)(=O)c2ccc(C(F)(F)F)cc2C(N)=O)c2n[nH]c(=O)o2)c1C [Example 41, 2-(N-((1S,2R)-2-(6-fluoro-2,3-dimethylphenyl)-1-(5-oxo-4,5 dihydro-1,3,4-oxadiazol-2-yl)propyl)sulfamoyl)-5-(trifluoromethyl)benzamide]	–
6.60	COc1c(S(=O)(=O)N[C@H](c2n[nH]c(=O)o2)[C@H](C)c2c(F)ccc3ccccc23)ccc(Cl)c1C(C)O (stereo partly drawn) [Example 205, 4-chloro-N-((1S,2R)-2-(2-fluoronaphthalene-1-yl)-1-(5-oxo-4,5-dihydro-1,3,4-oxadiazol-2-yl)propyl)-3-(1-hydroxyethyl)-2-methoxybenzenesulfonamide]	–
6.77	Cc1ccc(F)c([C@@H](C)[C@H](NS(=O)(=O)c2cc([N+](=O)[O-])c(Cl)cc2C(N)=O)c2n[nH]c(=O)o2)c1C [Example 262, 5-chloro-2-(N-((1S,2R)-2-(6-fluoro-2,3-dimethylphenyl)-1-(5-oxo-4,5-dihydro-1,3,4-oxadiazol-2-yl)propyl)sulfamoyl)-4-nitrobenzamide]	–
